From US9718790B2, “Triazine derivative and pharmaceutical composition having an analgesic activity comprising the same” (SHIONOGI & CO., LTD., priority 2010, dated 2017)

Target: human P2X3 receptor (Homo sapiens (Human), UniProt P56373)
Assay: Evaluation of human P2X3 receptor inhibitory activity (Fluo-3 calcium fluorescence, FDSS 3000, ATP stimulation);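 note: stimulus was 50 nM ATP with fluorescence followed for 3 min, and the response per well was peak post-ATP fluorescence divided by the reading at measurement start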
Assay type: cell-based
[1] = human P2X3 receptor, Test Example 1
[2] = C6BU-1 cells stably expressing human P2X3 receptor
[3] = C6BU-1 cells stably expressing human P2X3 receptor, Fluo-3 fluorescence, FDSS 3000

human P2X3 receptor, sequence (P56373 whole entry): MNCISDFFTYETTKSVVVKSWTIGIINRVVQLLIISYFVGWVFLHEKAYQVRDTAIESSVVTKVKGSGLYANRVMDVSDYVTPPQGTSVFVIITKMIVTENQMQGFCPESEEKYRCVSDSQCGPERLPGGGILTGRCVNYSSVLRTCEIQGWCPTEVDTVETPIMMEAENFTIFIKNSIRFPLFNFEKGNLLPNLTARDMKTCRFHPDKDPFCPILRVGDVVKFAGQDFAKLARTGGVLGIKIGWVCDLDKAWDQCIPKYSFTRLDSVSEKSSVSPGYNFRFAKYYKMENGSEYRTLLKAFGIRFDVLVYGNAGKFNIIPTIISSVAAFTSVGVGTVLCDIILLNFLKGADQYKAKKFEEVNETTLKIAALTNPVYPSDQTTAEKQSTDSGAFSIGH

Compound	IC50 [1] [nM]	IC50 [2] [nM]	IC50 [3] [nM]
Cc1nsc(Oc2ccc(/N=c3\[nH]c(=O)n(CCCO)c(=O)n3Cc3ccc(F)cc3)cc2)n1 [Compound I-2606]	14		
COc1cc(/N=c2\[nH]c(=O)n(CC(CO)CO)c(=O)n2Cc2ccc(Cl)cc2)ccc1OC(C)C [Compound I-1985]		11	
COC(=O)[C@@H](C)Cn1c(=O)[nH]/c(=N\c2ccc(CCC3CC3)cc2)n(Cc2ccc(C)cc2)c1=O [Compound I-1202]		93	
CCn1c(=O)[nH]/c(=N\c2ccc(Oc3cnccn3)cc2)n(Cc2ccc(Cl)cc2)c1=O [Compound I-2642]	11		
CCc1oc2ccc(/N=c3\[nH]c(=O)n(CC(N)=O)c(=O)n3Cc3ccc(Cl)cc3)cc2c1C [Compound I-1656]			7
CCCOc1ccc(/N=c2\[nH]c(=O)n(CCCC(=O)O)c(=O)n2Cc2ccc(C)cc2)cc1Cl [Compound I-0873]	47		
CCCOc1ccc(/N=c2\[nH]c(=O)n(C[C@@H](C)C(=O)OC)c(=O)n2Cc2ccc(Cl)cc2)cc1 [Compound I-1034]			5
COc1cc(/N=c2\[nH]c(=O)n(C)c(=O)n2Cc2ccc(Cl)cc2)ccc1Oc1cccc(C#N)n1 [Compound I-2390]	7		
COC(=O)C1(Cn2c(=O)[nH]/c(=N\c3ccc(OC(C)C)c(C)c3)n(Cc3ccc(Cl)cc3)c2=O)COC1 [Compound I-1480]	2		
CCc1oc2ccc(/N=c3\[nH]c(=O)n(C[C@@H](C)NC(C)=O)c(=O)n3Cc3ccc(Cl)cc3)cc2c1C [Compound I-1673]			14
CCn1c(=O)[nH]/c(=N\c2ccc(Oc3ccc(C(=O)O)nc3)cc2)n(C[C@H]2CC[C@H](C)CC2)c1=O [Compound I-2351]	9		
CCOC(=O)CCn1c(=O)[nH]/c(=N\c2ccc(O[C@H](C)C(F)(F)F)cc2)n(Cc2ccc(C)cc2)c1=O [Compound I-1021]			7
Cn1c(=O)[nH]/c(=N\c2ccc(Oc3ccnc(C(=O)O)c3)cc2)n(Cc2ccc(Cl)cc2)c1=O [Compound I-2099]		8	
CC(C)=Cc1ccc(/N=c2\[nH]c(=O)n(C[C@H](C)C(=O)O)c(=O)n2Cc2ccc(C)cc2)cn1 [Compound I-1304]		574	
CCn1c(=O)[nH]/c(=N\c2ccc(Oc3ccc(C(N)=O)cn3)cc2)n(Cc2ccc(C)cc2)c1=O [Compound I-2398]	3		
O=c1[nH]c(=O)n(Cc2ccc(Cl)cc2)/c(=N/c2ccc(Oc3ccnc(CO)c3)cc2)[nH]1 [Compound I-1962]		65	
NC(=O)Cn1c(=O)[nH]/c(=N\c2ccc(Oc3ccnc(O)c3)cc2)n(Cc2ccc(Cl)cc2)c1=O [Compound I-1977]		5	
CC[C@H](C)n1c(=O)[nH]/c(=N\c2ccc(Oc3cncc(C(=O)O)c3)cc2)n(Cc2ccc(Cl)cc2)c1=O [Compound I-2481]	8		
COC(=O)C(C)(C)Cn1c(=O)[nH]/c(=N\c2ccc(OCC3CC3)cc2)n(Cc2ccc(C)cc2)c1=O [Compound I-1242]		15	
COC(=O)[C@@H](C)Cn1c(=O)[nH]/c(=N\c2ccc(OC(C)C)c(C#N)c2)n(Cc2ccc(C)cc2)c1=O [Compound I-0951]			33
Cc1ccc(Cn2c(=O)n(CCC(N)=O)c(=O)[nH]/c2=N\c2ccc3nc(C)sc3c2)cc1 [Compound I-1671]			6
CCn1c(=O)[nH]/c(=N\c2ccc(Oc3nccc(C(=O)O)n3)cc2)n(Cc2ccc(Cl)cc2)c1=O [Compound I-2319]	17		

Compound	IC50 [1] [nM]	IC50 [2] [nM]	IC50 [3] [nM]
Cc1ccc(Cn2c(=O)n(CCCCC(=O)O)c(=O)[nH]/c2=N\c2ccc3nc(C)sc3c2)cc1 [Compound I-2158]		29	
CCn1c(=O)[nH]/c(=N\c2ccc(Oc3ccncc3)cc2)n(Cc2ccc(C)cc2)c1=O [Compound I-2573]	6		
CC1(Cn2c(=O)[nH]/c(=N\c3ccc(Oc4ccon4)cc3)n(Cc3ccc(F)cc3)c2=O)COC(C)(C)OC1 [Compound I-2396]	6		
Cc1nc2ccc(/N=c3\[nH]c(=O)n(C[C@H](C)C(=O)O)c(=O)n3Cc3ccc(Cl)cc3)cc2nc1C [Compound I-1348]		918	
COC(=O)[C@@H](C)Cn1c(=O)[nH]/c(=N\c2ccc(OC(F)F)c(Cl)c2)n(Cc2ccc(C)cc2)c1=O [Compound I-1022]			14
CCn1c(=O)[nH]/c(=N\c2ccc(Oc3ccnc(C#N)c3)cc2)n(Cc2ccc(Cl)cn2)c1=O [Compound I-2372]	32		
CCCOc1ccc(/N=c2\[nH]c(=O)n(C[C@H](C)C(=O)OC)c(=O)n2Cc2ccc(Cl)cc2)cc1C [Compound I-0707]		21	
COc1cc(/N=c2\[nH]c(=O)n(CC(C)(C)C(=O)O)c(=O)n2Cc2ccc(C)cc2)ccc1OC(C)C [Compound I-1280]		27	
COc1ccc(Oc2ccc(/N=c3\[nH]c(=O)n(CC(=O)O)c(=O)n3Cc3ccc(Cl)cc3)cc2)cn1 [Compound I-1799]			382
O=C(O)CCn1c(=O)[nH]/c(=N\c2ccc(Oc3cccnc3)cc2)n(Cc2ccc(Cl)cc2)c1=O [Compound I-1206]		43	
Cn1c(=O)[nH]/c(=N\c2ccc(Oc3ccnc(CO)c3)cc2)n(Cc2ccc(Cl)cc2)c1=O [Compound I-2018]		22	
Cc1nsc(Oc2ccc(/N=c3\[nH]c(=O)n(C[C@H](O)CO)c(=O)n3Cc3ccc(Cl)cc3)cc2)n1 [Compound I-2518]	4		
CCc1oc2ccc(/N=c3\[nH]c(=O)n(C[C@H](CC)NC(C)=O)c(=O)n3Cc3ccc(Cl)cc3)cc2c1C [Compound I-1708]			17
O=c1[nH]/c(=N\c2ccc(Oc3ccon3)cc2)n(Cc2ccc(Cl)cc2)c(=O)n1CC(O)CO (centres unmarked) [Compound I-2370]	11		
CCc1oc2ccc(/N=c3\[nH]c(=O)n(CCCNC(C)=O)c(=O)n3Cc3ccc(Cl)cc3)cc2c1C [Compound I-1568]			10
CCn1c(=O)[nH]/c(=N\c2ccc(Nc3ccncc3)cc2)n(Cc2ccc(C)cc2)c1=O [Compound I-2569]	162		
CC(C)Oc1ccc(/N=c2\[nH]c(=O)n(CCCN/C(=N\C#N)Oc3ccccc3)c(=O)n2Cc2ccc(Cl)cc2)cc1F [Compound I-0613]		11	
Cc1ccc(Cn2c(=O)n([C@H](C)CC(=O)O)c(=O)[nH]/c2=N\c2ccc(OC(C)C)c(Cl)c2)cc1 [Compound I-0878]	22		
CCOC(=O)CCn1c(=O)[nH]/c(=N\c2ccc(OCCC(C)C)cc2)n(Cc2ccc(C)cc2)c1=O [Compound I-1055]			91
Cc1cc(/N=c2\[nH]c(=O)n(CC3COC(C)(C)OC3)c(=O)n2Cc2ccc(Cl)cc2)ccc1OC(C)C [Compound I-1899]			4
CNC(=O)CCn1c(=O)[nH]/c(=N\c2ccc3nc(C)sc3c2)n(Cc2ccc(C)cc2)c1=O [Compound I-1570]			8
CCn1c(=O)nc(Nc2ccc(Oc3ccc(C(=O)O)nn3)cc2)n(Cc2ccc(F)cc2)c1=O [Compound I-2699]	134		

Compound	IC50 [1] [nM]	IC50 [2] [nM]	IC50 [3] [nM]
COC(=O)C(C)(C)n1c(=O)[nH]/c(=N\c2ccc(OC(C)C)c(Cl)c2)n(Cc2ccc(Cl)cc2)c1=O [Compound I-0640]		5	
Cc1cc(/N=c2\[nH]c(=O)n(CCC(=O)O)c(=O)n2Cc2ccc(Cl)cc2)ccc1OC(C)C [Compound I-1157]			52
CCn1c(=O)[nH]/c(=N\c2ccc(Oc3cccc(-c4nnn[nH]4)n3)cc2)n(Cc2ccc(Cl)cc2)c1=O [Compound I-2602]	2		
CCn1c(=O)[nH]/c(=N\c2ccc(Oc3cccc(C(N)=O)n3)cc2)n(Cc2ccc(Cl)cc2)c1=O [Compound I-2145]		8	
COC(=O)[C@@H](C)Cn1c(=O)[nH]/c(=N\c2ccc(Oc3ccccc3)cc2)n(Cc2ccc(Cl)cc2)c1=O [Compound I-0989, (S)-1-(4-chlorobenzyl)-3-(2-methoxycarbonylpropyl)-6-(4-phenoxy-phenylimino)-1,3,5-triazinane-2,4-dion]			68
NC(=O)CCn1c(=O)[nH]/c(=N\c2ccc(OC3CCC3)cc2)n(Cc2ccc(Cl)cc2)c1=O [Compound I-1915]		23	
COC(=O)[C@@H](C)Cn1c(=O)[nH]/c(=N\c2cnc(Oc3ccccc3)c(Cl)c2)n(Cc2ccc(C)cc2)c1=O [Compound I-1474]		138	
O=c1[nH]/c(=N\c2ccc(OC3CCC3)cc2)n(Cc2ccc(Cl)cc2)c(=O)n1CCO [Compound I-2010]		54	
COC(=O)[C@H](C)[C@H](C)n1c(=O)[nH]/c(=N\c2ccc(OC3CCC3)cc2)n(Cc2ccc(C)cc2)c1=O [Compound I-1379]		10	
COC(=O)[C@@H](C)Cn1c(=O)[nH]/c(=N\c2ccc(OC3CCCCC3)nc2)n(Cc2ccc(C)cc2)c1=O [Compound I-1184]			138
COc1noc2cc(/N=c3\[nH]c(=O)n([C@@H](C)[C@@H](C)C(=O)O)c(=O)n3Cc3ccc(Cl)cc3)ccc12 [Compound I-1746]			129
NC(=O)CCn1c(=O)[nH]/c(=N\c2ccc(Oc3ccon3)cc2)n(Cc2ccc(Cl)cc2)c1=O [Compound I-2443]	24		
CCn1c(=O)[nH]/c(=N\c2ccc(Oc3cccc(C(=O)O)n3)cc2)n(Cc2ccc(Cl)cc2)c1=O [Compound I-2095]		5	
CC1(C)OC[C@H](Cn2c(=O)[nH]/c(=N\c3ccc(Oc4ccon4)cc3)n(Cc3ccc(Cl)cc3)c2=O)O1 [Compound I-2289]	< 4		
COC(=O)[C@@H](C)Cn1c(=O)[nH]/c(=N\c2ccc(Oc3ccccc3)nc2)n(Cc2ccc(C)cc2)c1=O [Compound I-1515]	157		
CCc1nc2ccc(/N=c3\[nH]c(=O)n(CCNC(C)=O)c(=O)n3Cc3ccc(Cl)cc3)cc2s1 [Compound I-1612]			5
CCn1c(=O)[nH]/c(=N\c2ccc(Oc3ccnc(C(=O)NC)c3)cc2)n(Cc2ccc(F)cc2)c1=O [Compound I-2110]		12	
CNC(=O)Cn1c(=O)[nH]/c(=N\c2ccc(Oc3nccs3)cc2)n(Cc2ccc(Cl)cc2)c1=O [Compound I-2645]	18		
CCc1ccc(Cn2c(=O)n(C[C@H](C)C(=O)O)c(=O)[nH]/c2=N\c2ccc(OC(C)C)cc2)cc1 [Compound I-1140]			44
Cc1cc(/N=c2\[nH]c(=O)n(Cc3cccn(CCOC4CCCCO4)c3=O)c(=O)n2Cc2ccc(Cl)cc2)ccc1OC(C)C (centres unmarked) [Compound I-0712]		25	
COC(=O)CN1CCC(n2c(=O)[nH]/c(=N\c3ccc(OC(C)C)c(C)c3)n(Cc3ccc(Cl)cc3)c2=O)CC1 [Compound I-1639]			14
